Measured values published in PMC8779134 (2022).
Each block holds one compound with its values, some of them ahead of it. *1 amine or outer side, *2 acyl side, *3 side chain or, on linkers, in order; H or OH if unused. Where a SMILES comes first, the peptide text is derived from it. Bridges are numbered along the chain shown (N, C = ends). [ ]: non-standard residue; d: D form. ξ: configuration not given here. ξTrp(2-yl) = O=C(C(Cc1c([*:3])[nH]c2ccccc12)N[*:1])[*:2]; X2 = O=C(C(CC(O)(CO)CO)N[*:1])[*:2]; X1 = CC(O)(CO)CC(N[*:1])C(=O)[*:2]; ξAsp(3ξ-OH) = NC(C(=O)O)C(O)C(=O)O; Hyp = O=C(O)[CH]1C[CH](O)CN1

Columns and labels:
[1] = test system: Apt (DNA, aptamer) CATGCTTCCCCAGGGAGATGGAGGTCTTTTTGGTTGTTGGTGGGGGAATCTTTTGGTATTGAGGAACATG; assay: AuNP colorimetric assay (A620/A520); conditions: Na+ 40 mM (NaCl added after binding), room temperature, 400 nM aptamer
[2] = test system: biotin-labeled Apt (DNA, aptamer) CATGCTTCCCCAGGGAGATGGAGGTCTTTTTGGTTGTTGGTGGGGGAATCTTTTGGTATTGAGGAACATG; assay: magnetic bead ELISA, competition (A450); conditions: 37 °C, biotinylated complementary strand as competitor
[3] = test system: Apt-10 (DNA, aptamer) CCCCAGGGAGATGGAGGTCTTTTTGGTTGTTGGTGGGGGAATCTTTTGGTATTGAGGAA; assay: ITC; conditions: ultrapure water, 25 °C; 500 μM aptamer into 41.6 μM α-amanitin; printed ΔG positive
[4] = test system: Apt-8 (DNA, aptamer) CATGCTTCCCCAGGGAGATGGAGGTCTTTTTGGTTGTTGGTGGGGGAATCTTTTGGTA; assay: AuNP colorimetric assay (A520); conditions: Na+ 40 mM (NaCl added after binding); room temperature; aptamer 0-1600 nM titrated into 1 μg/mL α-amanitin; apparent; table unit misprinted Nm
[5] = test system: Apt-8 (DNA, aptamer) CATGCTTCCCCAGGGAGATGGAGGTCTTTTTGGTTGTTGGTGGGGGAATCTTTTGGTA; assay: ITC; conditions: ultrapure water, 25 °C; 500 μM aptamer titrated into 41.6 μM α-amanitin
[6] = test system: Apt-2 (DNA, aptamer) CCAGGGAGATGGAGGTCTTTTTGGTTGTTGGTGGGGGAATCTTTTGGTATTGAGGAACATG; assay: ITC; conditions: ultrapure water, 25 °C; 500 μM aptamer titrated into 41.6 μM α-amanitin
[7] = test system: Apt-11 (DNA, aptamer) CTTCCCCAGGGAGATGGAGGTCTTTTTGGTTGTTGGTGGGGGAAT; assay: ITC; conditions: ultrapure water, 25 °C; 500 μM aptamer into 41.6 μM α-amanitin; fit unphysical (N, ΔH)
[8] = test system: Apt-11 (DNA, aptamer) CTTCCCCAGGGAGATGGAGGTCTTTTTGGTTGTTGGTGGGGGAAT; assay: AuNP colorimetric assay (A520); conditions: Na+ 40 mM (NaCl added after binding); room temperature; aptamer 0-1600 nM titrated into 1 μg/mL α-amanitin; apparent; table unit misprinted Nm
[9] = test system: Apt-12 (DNA, aptamer) GGGAGATGGAGGTCTT; assay: AuNP colorimetric assay (A520); conditions: Na+ 40 mM (NaCl added after binding); room temperature; 1 μg/mL α-amanitin; apparent; text b16 prints 132.1 ± 32.99 nM instead
[10] = test system: Apt-12 (DNA, aptamer) GGGAGATGGAGGTCTT; assay: ITC; conditions: ultrapure water, 25 °C; 500 μM aptamer titrated into 41.6 μM α-amanitin
[11] = test system: Apt-2 (DNA, aptamer) CCAGGGAGATGGAGGTCTTTTTGGTTGTTGGTGGGGGAATCTTTTGGTATTGAGGAACATG; assay: AuNP colorimetric assay (A520); conditions: Na+ 40 mM (NaCl added after binding); room temperature; aptamer 0-1600 nM titrated into 1 μg/mL α-amanitin; apparent; table unit misprinted Nm
[12] = test system: Apt-10 (DNA, aptamer) CCCCAGGGAGATGGAGGTCTTTTTGGTTGTTGGTGGGGGAATCTTTTGGTATTGAGGAA; assay: AuNP colorimetric assay (A520); conditions: Na+ 40 mM (NaCl added after binding); room temperature; aptamer 0-1600 nM titrated into 1 μg/mL α-amanitin; apparent; table unit misprinted Nm
[13] = test system: Apt (DNA, aptamer) CATGCTTCCCCAGGGAGATGGAGGTCTTTTTGGTTGTTGGTGGGGGAATCTTTTGGTATTGAGGAACATG; assay: AuNP colorimetric assay (A520); conditions: Na+ 40 mM (NaCl added after binding); room temperature; aptamer 0-1600 nM titrated into 1 μg/mL α-amanitin; apparent; table unit misprinted Nm
[14] = test system: Apt (DNA, aptamer) CATGCTTCCCCAGGGAGATGGAGGTCTTTTTGGTTGTTGGTGGGGGAATCTTTTGGTATTGAGGAACATG; assay: ITC; conditions: ultrapure water, 25 °C; 500 μM aptamer titrated into 41.6 μM α-amanitin
[15] = highest concentration 500 ng/mL

Structure (SMILES): CCCC[C@@H](C)[C@@H](OC(=O)C[C@@H](CC(=O)O)C(=O)O)[C@H](C[C@@H](C)C[C@H](O)CCCC[C@@H](O)C[C@H](O)[C@H](C)N)OC(=O)C[C@@H](CC(=O)O)C(=O)O
binding ([1]; highest concentration 1 μg/mL): no

Structure (SMILES): CC[C@H](C)[C@@H]1NC(=O)CNC(=O)[C@@H]2Cc3c([nH]c4cc(O)ccc34)[S@](=O)C[C@H](NC(=O)CNC1=O)C(=O)N[C@@H](CC(N)=O)C(=O)N1C[C@H](O)C[C@H]1C(=O)N[C@@H]([C@@H](C)[C@@H](O)CO)C(=O)N2
Kd [3]: 68 µM | Kd [4]: 0.1309 ± 0.0311 µM | Kd [5]: 11.9 µM | Kd [6]: 46.9 µM | Kd [7]: 54.6 µM | Kd [8]: 0.1844 ± 0.03708 µM | Kd [9]: 0.1852 ± 0.06087 µM | Kd [10]: 84.7 µM | binding ([2]; 0.1-6 μg/mL): yes | Kd [11]: 0.0379 ± 0.006053 µM | Kd [12]: 0.1087 ± 0.01823 µM | Kd [13]: 0.0336 ± 0.003928 µM | Kd [14]: 3.1 µM

Structure (SMILES): C[C@@H]1Cc2c(Cl)cc(C(=O)N[C@@H](Cc3ccccc3)C(=O)O)c(O)c2C(=O)O1
binding ([1]; highest concentration 1 μg/mL): no

Structure (SMILES): CC1NC(=O)C2CC(O)CN2C(=O)C2CSc3[nH]c4ccccc4c3CC(NC1=O)C(=O)NC(CC(C)(O)CO)C(=O)NC(C(C)C)C(=O)NC(C(O)C(=O)O)C(=O)N2 (centres unmarked) (cyclo([ξAsp(3ξ-OH)]C[Hyp]A[ξTrp(2-yl)][X1]V); thioether 2-5; configuration not given here)
binding [2, 15]: no

Second part, the compound after the results:

binding ([1]; 1 μg/mL β-amanitin): yes | binding ([2]; 500 ng/mL): yes
Structure (SMILES): CC[C@H](C)[C@@H]1NC(=O)CNC(=O)[C@@H]2Cc3c([nH]c4cc(O)ccc34)[S@](=O)C[C@H](NC(=O)CNC1=O)C(=O)N[C@@H](CC(=O)O)C(=O)N1C[C@H](O)C[C@H]1C(=O)N[C@@H]([C@@H](C)[C@@H](O)CO)C(=O)N2

binding [2, 15]: no
Structure (SMILES): CC[C@H](C)[C@@H]1NC(=O)CNC(=O)[C@@H]2Cc3c([nH]c4cc(O)ccc34)[S@](=O)C[C@H](NC(=O)CNC1=O)C(=O)N[C@@H](CC(N)=O)C(=O)N1C[C@H](O)C[C@H]1C(=O)N[C@@H]([C@@H](C)[C@H](C)O)C(=O)N2

binding [2, 15]: no
Structure (SMILES): CC1NC(=O)C2CC(O)CN2C(=O)C2CSc3[nH]c4ccccc4c3CC(NC1=O)C(=O)NC(CC(O)(CO)CO)C(=O)NC(C(C)C)C(=O)NC(C(O)C(=O)O)C(=O)N2 (centres unmarked) (cyclo([ξAsp(3ξ-OH)]C[Hyp]A[ξTrp(2-yl)][X2]V); thioether 2-5; configuration not given here)
